Experiments:
Experiment in all cases: Bliss excess, mean over the matrix (fraction); higher = more synergy
[1] = system: KCL-22 (Chronic Myelogenous Leukemia)
Outline: (§1)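 Cell lines in DMEM/F12 or RPMI with 10% FBS were plated in 1536-well plates, held 24 hours at 37°C, 5% CO2, then given two-drug dose matrices for 72 hours (DMSO typically 0.2%). Viability was read by CellTiter-Glo 2.0 luminescence and scaled as inhibition from 0 (vehicle wells) to 1 (blank wells). Combination Emax is the second-highest inhibition in the matrix; Bliss excess is observed combination effect minus expected EA + EB − EA·EB, EA and EB being single-agent effects.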

[2] = system: DiFi (Colorectal Carcinoma)
Outline: as §1

[3] = system: HL-60 (Acute Myeloid Leukemia)
Outline: as §1

[4] = system: SR (Other Blood Carcinomas)
Outline: as §1

U251 (Low Grade Glioma) = system: U251 (Low Grade Glioma)
Outline: as §1

WM-115 (Melanoma) = system: WM-115 (Melanoma)
Outline: as §1

[5] = system: SU-DHL-8 (B-Cell Non-Hodgkin's Lymphoma)
Outline: as §1

[6] = system: MOLT-16 (T-Lymphoblastic Leukemia)
Outline: as §1

[7] = system: KYSE-180 (Esophageal Squamous Cell Carcinoma)
Outline: as §1

ES8 (Ewing's Sarcoma) = system: ES8 (Ewing's Sarcoma)
Outline: as §1

[8] = system: PANC-08-13 (Pancreatic Carcinoma)
Outline: as §1

CHP-212 (Neuroblastoma) = system: CHP-212 (Neuroblastoma)
Outline: as §1

NCI-H2818 (Mesothelioma) = system: NCI-H2818 (Mesothelioma)
Outline: as §1

[9] = system: MFM-223 (Breast Carcinoma)
Outline: as §1

[10] = system: MS751 (Cervical Carcinoma)
Outline: as §1

[11] = system: P12-ICHIKAWA (T-Lymphoblastic Leukemia)
Outline: as §1

[12] = system: BL-41 (Burkitt's Lymphoma)
Outline: as §1

LN-18 (Glioblastoma) = system: LN-18 (Glioblastoma)
Outline: as §1

[13] = system: COLO-678 (Colorectal Carcinoma)
Outline: as §1

ES1 (Ewing's Sarcoma) = system: ES1 (Ewing's Sarcoma)
Outline: as §1

Structure (SMILES)	Bliss excess [1]	Bliss excess [2]	Bliss excess [3]	Bliss excess [4]	Bliss excess (U251 (Low Grade Glioma))	Bliss excess (WM-115 (Melanoma))	Bliss excess [5]	Bliss excess [6]	Bliss excess [7]	Bliss excess (ES8 (Ewing's Sarcoma))	Bliss excess [8]	Bliss excess (CHP-212 (Neuroblastoma))	Bliss excess (NCI-H2818 (Mesothelioma))	Bliss excess [9]	Bliss excess [10]	Bliss excess [11]	Bliss excess [12]	Bliss excess (LN-18 (Glioblastoma))	Bliss excess [13]	Bliss excess (ES1 (Ewing's Sarcoma))
Cc1nc(Nc2ncc(C(=O)Nc3c(C)cccc3Cl)s2)cc(N2CCN(CCO)CC2)n1 [Dasatinib] + CC(=O)Nc1cccc(-n2c(=O)n(C3CC3)c(=O)c3c(Nc4ccc(I)cc4F)n(C)c(=O)c(C)c32)c1 [Trametinib] (first compound max 2 µM, 7x7, partner max 1 µM)	-0.0501	-0.0465	-0.159	-0.0069	0.0682	0.118	-0.0242	-0.0184	-0.0424	0.0243	0.143	0.0235	-0.0109	-0.0546	-0.0099	0.0326	0.0075	-0.0433	-0.0945	-0.0643
Cn1cnc2c(F)c(Nc3ccc(Br)cc3Cl)c(C(=O)NOCCO)cc21 [Selumetinib] + C=CCn1c(=O)c2cnc(Nc3ccc(N4CCN(C)CC4)cc3)nc2n1-c1cccc(C(C)(C)O)n1 [AZD1775] (first compound max 10 µM, partner max 1 µM)	0.0242	0.0233	-0.0732	-0.0132	-0.0365	-0.0731	-0.0846	0.0252	-0.122	-0.185	-0.0849	-0.0257	-0.0498	-0.0831	0.0171	0.0595	-0.0162	-0.0103	0.0011	-0.0255
COc1nnc2ccc(N3CCC(c4ccc(OCCN5CCN(C)C(=O)[C@H]5C)cc4)CC3)nn12 [AZD5153] + Cc1c2c(nn1C)CSCc1cc(n(C)n1)CSc1cc(c3ccccc3c1)OCCCc1c(C(=O)O)n(C)c3c-2c(Cl)ccc13 [AZD5991] (first compound max 1 µM, 7x7, partner max 1 µM)	-0.0633	-0.0066	-0.0038	-0.0275	-0.0253	-0.0256	-0.0131	-0.0072	-0.0033	0.0357	0.0228	-0.0281	0.0183	-0.0258	0.0038	0.0813	-0.025	-0.0751	-0.0476	-0.037
C=CCn1c(=O)c2cnc(Nc3ccc(N4CCN(C)CC4)cc3)nc2n1-c1cccc(C(C)(C)O)n1 [AZD1775] + C1CN(CCC1(C(=O)N[C@@H](CCO)C2=CC=C(C=C2)Cl)N)C3=NC=NC4=C3C=CN4 [Capivasertib] (first compound max 3 µM, partner max 3 µM)	0.035	0.0272	0.0265	0.0013	-0.0223	-0.116	0.0097	0.0568	-0.0066	0.0352	-0.0493	-0.077	-0.0493	-0.0369	0.0003	0.0076	0.0156	0.0196	-0.0893	-0.0219
NC1(C(=O)N[C@@H](CCO)c2ccc(Cl)cc2)CCN(c2ncnc3[nH]ccc23)CC1 [Capivasertib] + CC(=O)c1c(C)c2cnc(Nc3ccc(N4CCNCC4)cn3)nc2n(C2CCCC2)c1=O [Palbociclib] (first compound max 10 µM, 7x7, partner max 10 µM)	0.0438	-0.0394	-0.0406	0.0289	0.0007	-0.0469	0.0646	-0.0011	0.0645	0.0848	-0.0151	0.0311	-0.0025	0.0091	-0.0222	-0.0096	-0.0275	0.0368	-0.0295	0.0697
CC(=O)c1c(C)c2cnc(Nc3ccc(N4CCNCC4)cn3)nc2n(C2CCCC2)c1=O [Palbociclib] + Cn1cnc2c(F)c(Nc3ccc(Br)cc3Cl)c(C(=O)NOCCO)cc21 [Selumetinib] (first compound max 10 µM, 7x7, partner max 10 µM)	-0.0021	0.0274	0.0109	0.0352	-0.0013	-0.0126	0.0147	-0.0133	-0.0135	0.041	-0.0053	-0.0313	-0.0013	0.0341	-0.0445	0.138	-0.0131	0.0293	-0.071	-0.0366
Cn1cnc2c(F)c(Nc3ccc(Br)cc3Cl)c(C(=O)NOCCO)cc21 [Selumetinib] + C[C@@H]1COCCN1C2=NC(=NC(=C2)C3(CC3)[S@](=N)(=O)C)C4=C5C=CNC5=NC=C4 [AZD6738] (first compound max 10 µM, 7x7, partner max 10 µM)	-0.0129	0.0092	-0.039	-0.0169	-0.0149	0.0116	-0.0454	0.0063	-0.0249	-0.069	-0.0351	-0.0474	-0.0144	-0.0412	0.0516	0.0286	-0.0299	-0.0318	0.132	-0.0257
C[C@@H](c1ccc2nccn2c1)n1nnc2ncc(-c3cnn(C)c3)nc21 [Savolitinib] + Cc1c2c(nn1C)CSCc1cc(n(C)n1)CSc1cc(c3ccccc3c1)OCCCc1c(C(=O)O)n(C)c3c-2c(Cl)ccc13 [AZD5991] (first compound max 1 µM, 7x7, partner max 1 µM)	-0.0134	-0.0321	-0.0266	0.0023	-0.0691	-0.037	-0.0425	-0.0289	-0.0117	0.0495	-0.0452	-0.0437	-0.0343	-0.0228	-0.0701	0.02	-0.0318	0.005	-0.0899	-0.0152
Cc1c2c(nn1C)CSCc1cc(n(C)n1)CSc1cc(c3ccccc3c1)OCCCc1c(C(=O)O)n(C)c3c-2c(Cl)ccc13 [AZD5991] + C[C@@H]1COCCN1C2=NC(=NC(=C2)C3(CC3)[S@](=N)(=O)C)C4=C5C=CNC5=NC=C4 [AZD6738] (first compound max 1 µM, 7x7, partner max 10 µM)	-0.0163	0.0302	-0.0069	0.0941	0.0572	0.0041	0.0814	0.0043	0.0821	0.0029	0.0337	0.0122	0.0148	0.0601	0.0565	0.0312	-0.0045	0.037	-0.0899	0.0292
CN(CCO)CC[C@H](CSc1ccccc1)Nc1ccc(S(=O)(=O)NC(=O)c2ccc(N3CCC([C@@H](O)c4ccccc4-c4ccc(Cl)cc4)CC3)cc2)cc1S(=O)(=O)C(F)(F)F [AZD4320] + CN(C)CCCOc1ccc(-c2ccc3ncc4c(c3c2)n(C2CCOCC2)c(=O)n4C)cn1 [AZD0156] (first compound max 1 µM, 7x7, partner max 1 µM)	0.0373	0.0046	0.0228	0.0454	-0.0374	-0.0469	-0.044	-0.0592	-0.0037	0.0079	-0.0051	-0.056	-0.0501	-0.0347	-0.0248	0.024	0.0153	-0.0015	-0.081	-0.0129
Cc1c2c(nn1C)CSCc1cc(n(C)n1)CSc1cc(c3ccccc3c1)OCCCc1c(C(=O)O)n(C)c3c-2c(Cl)ccc13 [AZD5991] + Cc1cc2ncnn2cc1Nc1ncc2c(n1)n(C1CCOCC1)c(=O)n2C [AZD7648] (first compound max 1 µM, 7x7, partner max 10 µM)	-0.0086	-0.0448	0.0014	0.0257	-0.0054	-0.11	-0.0664	-0.023	-0.0126	0.0038	0.0012	0.0203	-0.0757	-0.0361	-0.0396	-0.0167	0.029	-0.025	-0.0416	-0.013
CC(=O)Nc1cccc(-n2c(=O)n(C3CC3)c(=O)c3c(Nc4ccc(I)cc4F)n(C)c(=O)c(C)c32)c1 [Trametinib] + Cc1nc(-c2cn3c(n2)-c2ccc(-c4cnn(C(C)(C)C(N)=O)c4)cc2OCC3)n(C(C)C)n1 [Taselisib] (first compound max 1 µM, 7x7, partner max 10 µM)	0.292	0.107	0.228	0.22	0.132	0.048	-0.0358	0.006	0.0886	-0.0924	0.132	0.0363	-0.0103	-0.0174	0.128	0.267	0.0485	0.0432	-0.0114	0.0161
CC1(C)CCC(CN2CCN(c3ccc(C(=O)NS(=O)(=O)c4ccc(NCC5CCOCC5)c([N+](=O)[O-])c4)c(Oc4cnc5[nH]ccc5c4)c3)CC2)=C(c2ccc(Cl)cc2)C1 [Venetoclax] + C[C@@H]1COCCN1C2=NC(=NC(=C2)C3(CC3)[S@](=N)(=O)C)C4=C5C=CNC5=NC=C4 [AZD6738] (first compound max 1 µM, 7x7, partner max 10 µM)	-0.0088	-0.0183	-0.0656	-0.0139	-0.0405	-0.119	-0.0176	-0.0319	-0.0173	0.004	-0.0482	-0.0419	-0.0458	-0.0604	0.0094	0.0418	0.0001	-0.0469	-0.0293	-0.0268
COc1nnc2ccc(N3CCC(c4ccc(OCCN5CCN(C)C(=O)[C@H]5C)cc4)CC3)nn12 [AZD5153] + CC1(C)CCC(CN2CCN(c3ccc(C(=O)NS(=O)(=O)c4ccc(NCC5CCOCC5)c([N+](=O)[O-])c4)c(Oc4cnc5[nH]ccc5c4)c3)CC2)=C(c2ccc(Cl)cc2)C1 [Venetoclax] (first compound max 1 µM, 7x7, partner max 1 µM)	-0.0343	0.0054	-0.0379	-0.0209	-0.0872	-0.0717	-0.0486	0.0309	-0.0193	-0.0594	0.0065	-0.085	-0.0487	-0.0295	-0.0752	-0.0389	-0.0551	0.0348	-0.121	-0.0896

Reference: the supplement of paper PMC11061612
